# Assays:
# [1] = biological target: T1, human OX2R (Homo sapiens, UniProt O43614); assay: Calcium mobilization functional assay, PFSK-1 cells, OX-B; type: cell-based
# T1 sequence (O43614 1-444): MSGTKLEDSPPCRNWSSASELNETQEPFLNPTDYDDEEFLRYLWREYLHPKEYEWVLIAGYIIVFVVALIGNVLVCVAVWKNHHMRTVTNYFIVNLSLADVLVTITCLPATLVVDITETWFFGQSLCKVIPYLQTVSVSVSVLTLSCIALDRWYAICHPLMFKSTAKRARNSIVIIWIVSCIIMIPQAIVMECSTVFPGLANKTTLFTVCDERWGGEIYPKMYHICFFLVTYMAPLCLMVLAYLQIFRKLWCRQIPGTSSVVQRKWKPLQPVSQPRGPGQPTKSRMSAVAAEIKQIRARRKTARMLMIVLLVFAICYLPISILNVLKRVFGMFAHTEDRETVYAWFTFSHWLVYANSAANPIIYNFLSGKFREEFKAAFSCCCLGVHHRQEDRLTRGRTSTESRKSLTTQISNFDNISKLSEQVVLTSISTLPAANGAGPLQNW
# Description: The human OX2R functional assay used PFSK-1 cells which are a human neuroectodermal cell line that innately expresses the OX2R. Since the intracellular calcium response is transient and not consistent with equilibrium assumptions, the assays were performed by giving a standard, EC80 dose of the OX agonist and calculating a pKB from inhibition of the agonist response by a dose range of the antagonists. The cells were plated in black 96 well tissue culture plates with clear bottoms at 50,000 cells/well and grown overnight at 37°C in 5% carbon dioxide (CO2). […] The cell plate was then transferred to the Molecular Devices Fluorometric Imaging Plate Reader (FLIPR) Tetra instrument, which adds the OX agonist and monitors changes in fluorescence which reflect intracellular calcium levels.
# (§1) Results were calculated using GraphPad Prism (San Diego, CA, United States) software. Raw data from the FLIPR Tetra was exported as the difference between maximum and minimum fluorescence observed for each well. A non-linear regression was used to determine the agonist EC50 and antagonist IC50 for each plate, then the antagonist KB was calculated according to Cheng and Prusoff ([Cheng and Prusoff, 1973]).
# [2] = system: panel of 50 receptors, ion channels and transporters; assay: Selectivity binding panel of 50 receptors, ion channels and transporters (Eurofins); settings: at 10 μM; any receptor/transporter/ion channel other than the OX1R
# Description: These assays were performed by Eurofins (Celles L’Evescault, France).
# [3] = system: C57Bl6 OX2R knockout (KO) mice; assay: Sleep recording (EEG/EMG) in OX2R knockout mice; type: in vivo, mouse
# Description: Sleep experiments were conducted in male Sprague-Dawley rats (350–450 g, Harlan Laboratories, Livermore, CA, United States) and in male C57Bl6 OX2R knockout (KO) and corresponding wild-type mice (30–35 g, Charles River Laboratories, San Diego, CA, United States) as described previously ([Dugovic et al., 2009]). Animals were chronically implanted with telemetric devices (Data Sciences International, St. Paul, MN, United States) for the recording of electroencephalogram (EEG) and electromyogram (EMG) signals. Polysomnographic waveforms were analyzed per 10-s epoch and classified as wake, non-rapid eye movement (NREM) or REM sleep by using the computer software program SleepSign (Kissei Comtec, Nagano, Japan). For each experiment, EEG and EMG signals were recorded for up to 6 h after administration of the tested compounds. Analysis of sleep parameters included latency to NREM sleep (defined as the time interval to the first six consecutive NREM epochs) and REM sleep (the first two consecutive REM epochs post-treatment), and the duration of NREM and REM.
# Results were averaged and expressed as mean ± SEM in defined time intervals. To determine whether differences were significant at a given interval, either paired Student’s t-test or two-way analysis of variance (ANOVA) (interaction time × treatment), repeated measures followed by Bonferroni post hoc test was performed.
# In the present study, the in vivo functional target engagement was investigated in a model of permanent inhibition of OX2R, and the effects of JNJ-5471773 on sleep-wake states were examined in mice lacking the OX2R relative to their corresponding wild-type mice. […] NREM sleep latency and duration were not affected in both genotypes (not shown).
# [4] = system: Sprague-Dawley rats; assay: Normoxic 20% CO2 panic provocation model
# Description: Experiments were performed in male Sprague-Dawley rats (300–350 g, Harlan Laboratory, Indianapolis, IN, United States). […] Following exposure to hypercarbic and atmospheric air gasses, rats were immediately placed in the open-field box for a 5 min period then assessed in SI test for 5 min. The data reported are changes in activity, expressed in 1 min bins, relative to the average of the baseline measurement (t-5 to t-1 minute) from each rat.
# Each dependent variable for assessment of behavior and radiotelemetry data was respectively analyzed using a one way ANOVA, or a one way ANOVA with repeated measures with drug treatment as the main factor and time as repeated measures. In the presence of significant main effects post hoc tests were conducted using a parametric Fisher’s LSD test. Within subjects time effects were also assessed using a Dunnett’s one way analysis with the minute prior to the i.v infusion used as the control. Statistical significance was accepted with p < 0.05. All statistical analyses were carried out using SPSS 13.0 (SPSS, Inc., Chicago, IL, United States) and all graphs were generated using SigmaPlot 2001 (SPSS, Inc., Chicago, IL, United States) or Graphpad Prizm 7 Software, Inc. for Windows.
# Activation of the OX1R is a critical component of CO2-mediated anxiety and hypertension ([Johnson et al., 2012a]). Exposing rats to higher concentrations of hypercarbic gas (e.g., 20% CO2) depolarizes OX neurons by interacting with pH/ CO2 chemosensitive K^+ channels ([Williams et al., 2007]), and also causes subsequent release of orexin at post-synaptic targets in the brain and spinal cord to mobilize anxiety-like behavior, hypertension, and increases ventilatory responses ([Johnson et al., 2012c], [2015]). JNJ-54717793 was tested in a rat model of CO2-induced panic.
# [5] = biological target: T2, human OX1R (Homo sapiens, UniProt O43613); assay: Calcium mobilization functional assay, CHO-K1 cells, OX-A EC80
# T2 sequence (O43613 1-425): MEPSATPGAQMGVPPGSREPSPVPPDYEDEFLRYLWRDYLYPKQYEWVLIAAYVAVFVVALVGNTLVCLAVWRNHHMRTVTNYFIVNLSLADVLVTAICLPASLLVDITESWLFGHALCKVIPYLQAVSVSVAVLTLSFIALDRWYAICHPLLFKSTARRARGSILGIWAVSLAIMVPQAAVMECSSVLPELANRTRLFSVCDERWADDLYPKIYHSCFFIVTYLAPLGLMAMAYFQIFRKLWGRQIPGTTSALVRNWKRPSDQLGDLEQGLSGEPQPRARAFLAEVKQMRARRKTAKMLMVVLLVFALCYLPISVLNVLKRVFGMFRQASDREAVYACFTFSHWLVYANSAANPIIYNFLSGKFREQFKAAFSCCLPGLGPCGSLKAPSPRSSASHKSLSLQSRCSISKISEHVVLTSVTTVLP
# Description: Stably transfected CHO-K1 cells for the human OX1R or HEK-293 cells for the rat OX1R were used for the in vitro functional assays. […] Since the intracellular calcium response is transient and not consistent with equilibrium assumptions, the assays were performed by giving a standard, EC80 dose of the OX agonist and calculating a pKB from inhibition of the agonist response by a dose range of the antagonists. The cells were plated in black 96 well tissue culture plates with clear bottoms at 50,000 cells/well and grown overnight at 37°C in 5% carbon dioxide (CO2). […] The cell plate was then transferred to the Molecular Devices Fluorometric Imaging Plate Reader (FLIPR) Tetra instrument, which adds the OX agonist and monitors changes in fluorescence which reflect intracellular calcium levels.
# as §1
smiles,measurement,setting,value
"O=C(c1cccc(F)c1-c1ncccn1)N1[C@@H]2CC[C@H]1[C@H](Nc1cnc(C(F)(F)F)cn1)C2 [JNJ-54717793, (1S,2R,4R)-7-([(3-fluoro-2-pyrimidin-2-ylphenyl)carbonyl]-N-[5-(trifluoromethyl)pyrazin-2-yl]-7-azabicyclo[2.2.1]heptan-2-amine)]",Kb,[1],309 nM
same,inhibition in selectivity panel,[2],< 50%
same,NREM sleep latency and duration,[3]; 30 mg/kg oral (not shown),not affected
same,time spent in REM sleep,"[3]; 30 mg/kg oral, first 6 h post-treatment, versus vehicle",prolonged
same,latency for REM sleep,"[3]; 30 mg/kg oral, versus vehicle",significantly reduced
same,CO2-induced pressor responses (MAP),"[4]; rats, 3 mg/kg p.o.",at one time point
same,CO2-induced pressor responses (MAP),"[4]; rats, 30 mg/kg p.o.",attenuated CO2-induced pressor responses at multiple time points
same,increases in locomotor activity post CO2,"[4]; rats, 3, 10, 30 mg/kg p.o.",no effect
same,CO2-induced bradycardia responses (HR),"[4]; rats, 10 and 30 mg/kg p.o.",attenuated CO2-induced bradycardia responses at multiple time points
same,center or middle times in the open field test,"[4]; rats, after CO2 challenge",Nor was there an effect
same,sedative effects (line crossings) in the open field test,"[4]; rats, after CO2 challenge",no apparent sedative effects
same,CO2-induced anxiety behavior in the SI test,"[4]; rats, highest dose (30 mg/kg p.o.)",attenuated/blocked
same,Kb,[5],16.6 nM

# — publication PMC5465257, “Evaluation of JNJ-54717793 a Novel Brain Penetrant Selective Orexin 1 Receptor Antagonist in Two Rat Models of Panic Attack Provocation” (Frontiers in Pharmacology, 2017)
